Results from patent US8003694B2, “Crystal of hydroxynorephedrin derivative hydrochloride ¼ hydrate” (Kissei Pharmaceutical Co., Ltd., priority 2005, dated 2011).

Tests used:
[1] = Solubility Test (shake flask at 37° C., HPLC); type: physicochemical; details: for solubility in The First Fluid: first fluid of disintegration test of Japanese Pharmacopoeia; for solubility in The First Fluid / solubility in water: shaken 125 strokes per minute, constant or maximum concentration over 0.5-20 hours
Description: Each crystal polymorph (0.4 g), which was prepared by the above method, was taken in 50 mL Erlenmeyer flask respectively, and to the mixture was added 20 mL of the mediums as defined below. The flask was shaken at 125 strokes per minute at 37° C. After 0.5, 1, 2 and 20 hours from the start of shaking, 1.5 mL of the suspension was filtered through a membrane filter (pore size: 0.2 μm). The concentration of the filtrate for each crystal polymorph was determined by HPLC method to determine the solubility. The concentration where the concentration became constant by the temporal measurements of the concentration was determined to be the solubility of each polymorph, and the results are shown in Table 1. […] In the cases of crystalline form F and amorphous form, since these samples were dissolved completely in each medium within 0.5 hours after the start of the test, additional samples were added appropriately to the test flasks at the point of 0.5 hours after the start and the solubility tests were continued. The mediums: water or the first fluid of disintegration test of Japanese Pharmacopoeia (hereinafter referred to as The First Fluid).

[2] = Chemical Stability Test (storage at 60° C. for 1 week, HPLC and appearance); type: physicochemical
Description: Crystalline form F obtained in Example 1 was stored at 60° C. for 1 week to investigate the chemical stability. As the chemical stability, the residual percentage of ethyl (−)-2-[4-[2-[[(1S,2R)-2-hydroxy-2-(4-hydroxyphenyl)-1-methylethyl]amino]ethyl]-2,5-dimethylphenoxy]-acetate was determined by HPLC, and the change in appearance was also observed.

| solubility in The First Fluid ([1]; hydrochloride) | solubility in water ([1]; hydrochloride) | appearance ([2]; after 1 week at 60° C.) | residual percentage (chemical purity %) ([2]; after 1 week at 60° C.) | appearance ([2]; at start) | residual percentage (chemical purity %) ([2]; at start) | changes in chemical purity and appearance ([2]; stored at 60° C. for 1 week) | solubility in The First Fluid relative to crystalline forms A and B and amorphous form ([1]; The First Fluid) | solubility in The First Fluid ([1]; hydrate) | solubility in water ([1]; hydrate) | Structure (SMILES) |
| --- | --- | --- | --- | --- | --- | --- | --- | --- | --- | --- |
| 2.6 mg/mL | 17.8 mg/mL | – | – | – | – | – | – | – | – | CCOC(=O)COc1cc(C)c(CCN[C@@H](C)[C@H](O)c2ccc(O)cc2)cc1C.Cl [amorphous form, ethyl (−)-2-[4-[2-[[(1S,2R)-2-hydroxy-2-(4-hydroxyphenyl)-1-methylethyl]amino]ethyl]-2,5-dimethylphenoxy]acetate hydrochloride] |
| 2.4 mg/mL | 10.7 mg/mL | – | – | – | – | – | – | – | – | CCOC(=O)COc1cc(C)c(CCN[C@@H](C)[C@H](O)c2ccc(O)cc2)cc1C.Cl [crystal form A, ethyl (−)-2-[4-[2-[[(1S,2R)-2-hydroxy-2-(4-hydroxyphenyl)-1-methylethyl]amino]-ethyl]-2,5-dimethylphenoxy]acetate hydrochloride] |
| 2.9 mg/mL | 12.5 mg/mL | – | – | – | – | – | – | – | – | CCOC(=O)COc1cc(C)c(CCN[C@@H](C)[C@H](O)c2ccc(O)cc2)cc1C.Cl [crystal form B, ethyl (−)-2-[4-[2-[[(1S,2R)-2-hydroxy-2-(4-hydroxyphenyl)-1-methylethyl]amino]-ethyl]-2,5-dimethylphenoxy]acetate hydrochloride] |
| – | – | white | 98.1% | white | 98.1% | no changes | about 5 times | 11.8 mg/mL | 24.3 mg/mL | CCOC(=O)COc1cc(C)c(CCN[C@@H](C)[C@H](O)c2ccc(O)cc2)cc1C.Cl [crystal form F, ethyl (−)-2-[4-[2-[[(1S,2R)-2-hydroxy-2-(4-hydroxyphenyl)-1-methylethyl]amino]ethyl]-2,5-dimethylphenoxy]acetate hydrochloride ¼ hydrate] |
